The values that follow come from patent US20130096100A1, “DI(ARYLAMINO)ARYL COMPOUND” (ASTELLAS PHARMA INC., priority 2007, published 2013).

Series [1] can be described thus: Toxicity test in rats, 7-day repeated oral administration (Test Example 5). Conditions: 7 days; for Non-toxic dose: oral; for Dose: Bone marrow inhibition / Dose: Exacerbation of common symptoms / Dose: Moribund condition: SD, rat, in vivo, po. It counts as in vivo, SD rats. The source says:
Test compounds were each suspended in a 0.5% aqueous methylcellulose solution and repeatedly administered to SD rats (two females and four males in each group) by the oral route at each dose for 7 days.

Series [2] addresses T1, PHKG1 (Homo sapiens, UniProt Q16816).
T1 construct: purchased Carna Biosciences Inc., Japan (contract measurement)
The series is described as follows: Kinase inhibition profiling, PHKG1 (Test Example 6). Conditions: 100 nM; read-out: inhibitory activity against PHKG1. It counts as biochemical.

The target in series [3] is T2, MUSK (Homo sapiens, UniProt O15146).
T2 sequence (O15146 24-869): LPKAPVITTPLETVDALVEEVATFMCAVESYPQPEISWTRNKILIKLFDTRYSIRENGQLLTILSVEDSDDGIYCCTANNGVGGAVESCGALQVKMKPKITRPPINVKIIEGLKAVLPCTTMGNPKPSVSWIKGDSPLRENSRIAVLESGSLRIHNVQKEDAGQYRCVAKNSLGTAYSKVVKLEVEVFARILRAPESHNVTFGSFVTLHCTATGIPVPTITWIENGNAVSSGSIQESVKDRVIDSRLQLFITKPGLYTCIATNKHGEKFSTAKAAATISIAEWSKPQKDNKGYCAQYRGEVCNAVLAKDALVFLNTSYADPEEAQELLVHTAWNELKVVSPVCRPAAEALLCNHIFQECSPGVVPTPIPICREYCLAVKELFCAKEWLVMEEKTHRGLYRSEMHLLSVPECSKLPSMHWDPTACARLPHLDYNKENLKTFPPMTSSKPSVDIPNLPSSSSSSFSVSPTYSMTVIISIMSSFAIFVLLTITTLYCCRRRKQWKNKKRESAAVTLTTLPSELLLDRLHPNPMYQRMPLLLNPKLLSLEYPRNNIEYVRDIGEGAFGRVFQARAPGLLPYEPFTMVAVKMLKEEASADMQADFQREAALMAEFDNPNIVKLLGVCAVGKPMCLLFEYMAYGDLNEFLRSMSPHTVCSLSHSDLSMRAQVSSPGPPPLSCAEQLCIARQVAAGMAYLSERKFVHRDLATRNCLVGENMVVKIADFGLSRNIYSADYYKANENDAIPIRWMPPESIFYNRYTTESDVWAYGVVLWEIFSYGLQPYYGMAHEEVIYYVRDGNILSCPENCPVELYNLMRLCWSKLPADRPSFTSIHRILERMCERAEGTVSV
Description: Kinase inhibition profiling, MUSK (Test Example 6). Further details: purchased Carna Biosciences Inc., Japan (contract measurement). The following applies: 100 nM; read-out: inhibitory activity against MUSK. In kind it is biochemical.

The target of series [4] is T3, MER (Homo sapiens, UniProt Q12866).
T3 construct: purchased Carna Biosciences Inc., Japan (contract measurement)
T3 sequence (Q12866 21-999): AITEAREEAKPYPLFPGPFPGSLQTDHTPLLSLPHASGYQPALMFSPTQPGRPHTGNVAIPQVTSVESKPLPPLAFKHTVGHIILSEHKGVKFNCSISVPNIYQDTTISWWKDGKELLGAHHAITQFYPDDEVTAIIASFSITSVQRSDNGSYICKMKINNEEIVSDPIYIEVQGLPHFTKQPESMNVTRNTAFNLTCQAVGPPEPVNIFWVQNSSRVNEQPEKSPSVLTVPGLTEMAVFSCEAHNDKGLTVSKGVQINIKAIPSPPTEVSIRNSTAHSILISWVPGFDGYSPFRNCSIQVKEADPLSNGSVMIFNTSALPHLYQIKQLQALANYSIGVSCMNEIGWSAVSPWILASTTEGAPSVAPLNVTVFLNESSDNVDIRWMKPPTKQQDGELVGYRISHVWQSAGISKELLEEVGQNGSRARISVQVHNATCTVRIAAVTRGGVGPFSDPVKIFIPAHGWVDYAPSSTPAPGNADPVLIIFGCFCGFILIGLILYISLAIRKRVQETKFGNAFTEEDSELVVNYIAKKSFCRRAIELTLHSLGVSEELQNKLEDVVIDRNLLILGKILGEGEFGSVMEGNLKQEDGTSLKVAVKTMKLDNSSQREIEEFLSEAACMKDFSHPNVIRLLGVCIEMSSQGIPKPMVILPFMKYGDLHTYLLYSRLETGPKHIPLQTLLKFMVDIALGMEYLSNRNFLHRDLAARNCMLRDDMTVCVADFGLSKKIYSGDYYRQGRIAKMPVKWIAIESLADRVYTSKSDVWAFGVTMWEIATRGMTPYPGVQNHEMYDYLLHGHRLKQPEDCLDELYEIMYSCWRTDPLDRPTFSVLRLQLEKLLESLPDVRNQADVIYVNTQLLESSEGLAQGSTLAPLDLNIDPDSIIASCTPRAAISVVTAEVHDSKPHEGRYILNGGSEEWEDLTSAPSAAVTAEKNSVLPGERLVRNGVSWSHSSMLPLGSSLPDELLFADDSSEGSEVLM
Description: Kinase inhibition profiling, MER (Test Example 6). It counts as biochemical. The following applies: 100 nM; read-out: inhibitory activity against MER.

The subject of series [5] is 88 types of kinases. Description: Kinase inhibition profiling, 88 types of kinases (Test Example 6). It counts as biochemical. The following applies: concentration of 100 nM.
The target in series [6] is T4, MNK2 (Homo sapiens, UniProt Q9HBH9).
T4 construct: purchased Carna Biosciences Inc., Japan (contract measurement)
T4 sequence (Q9HBH9 whole entry): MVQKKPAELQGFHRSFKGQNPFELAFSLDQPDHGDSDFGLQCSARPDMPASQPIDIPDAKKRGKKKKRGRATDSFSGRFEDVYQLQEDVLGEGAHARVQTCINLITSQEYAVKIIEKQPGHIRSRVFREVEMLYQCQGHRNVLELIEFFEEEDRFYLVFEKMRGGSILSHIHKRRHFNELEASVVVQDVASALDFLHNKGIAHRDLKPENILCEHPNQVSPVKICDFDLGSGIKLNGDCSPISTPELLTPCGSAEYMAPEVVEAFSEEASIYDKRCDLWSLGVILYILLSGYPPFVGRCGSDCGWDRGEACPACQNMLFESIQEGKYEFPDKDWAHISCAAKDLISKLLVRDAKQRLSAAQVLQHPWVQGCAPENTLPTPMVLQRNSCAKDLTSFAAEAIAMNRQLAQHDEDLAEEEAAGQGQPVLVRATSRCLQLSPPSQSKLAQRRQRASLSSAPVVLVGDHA
The series is described as follows: Kinase inhibition profiling, MNK2 (Test Example 6). In kind it is biochemical. The following applies: 100 nM; read-out: inhibitory activity against MNK2.

T1 sequence (Q16816 whole entry): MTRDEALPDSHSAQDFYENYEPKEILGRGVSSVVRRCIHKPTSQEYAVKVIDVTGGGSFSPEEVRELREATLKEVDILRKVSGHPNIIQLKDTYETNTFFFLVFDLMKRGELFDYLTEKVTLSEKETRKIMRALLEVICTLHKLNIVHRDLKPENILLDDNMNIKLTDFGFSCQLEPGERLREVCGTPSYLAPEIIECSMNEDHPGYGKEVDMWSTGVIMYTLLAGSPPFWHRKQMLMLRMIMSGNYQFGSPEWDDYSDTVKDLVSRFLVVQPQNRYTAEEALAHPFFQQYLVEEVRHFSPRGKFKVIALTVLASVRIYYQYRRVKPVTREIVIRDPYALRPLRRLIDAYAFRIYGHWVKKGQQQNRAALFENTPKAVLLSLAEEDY

For the compound `COc1cc(N2CCC(N3CCN(C)CC3)CC2)ccc1Nc1ncnc(Nc2ccccc2S(=O)(=O)C(C)C)n1` [Example 23], the Non-toxic dose in series [1] (female SD rats (2 rats)) and in series [1] (male SD rats (4 rats)) was 10 mg/kg in each case. Moreover, the “Dose: Bone marrow inhibition” value in series [1] (female) and in series [1] (male) was 100 mg/kg in each case. Further, the “Dose: Exacerbation of common symptoms” value in series [1] (female) and in series [1] (male) was “(>300) mg/kg” throughout. Further, the “Dose: Moribund condition” value in series [1] (female) and in series [1] (male) was “(>300) mg/kg” throughout. The inhibition at 0.1 µM was < 20% in series [2], < 20% in series [3], < 20% in series [4] and 80% in series [6]. Also, the “number of types of kinases (of 88) with 50% or more inhibitory activity” value in series [5] is given as 4 types of kinases.
